Source: the NIST ThermoML archive (doi:10.1007/s10765-006-0080-z)

Assays:
[1] = for thermal diffusivity: 101.33 kPa, Laser flash
[2] = molar heat capacity at constant pressure; settings: 101.33 kPa, Laser pulse heating

[Zr] [zirconium]
Settings	molar heat capacity at constant pressure, [2] [J/K/mol]	thermal diffusivity, [1] [m2/s]
289 K, Crystal 2	–	1.25e-05
293 K, Crystal 2	26.31	–
323 K, Crystal 2	26.57	–
327 K, Crystal 2	–	1.17e-05
373 K, Crystal 2	26.89	–
379 K, Crystal 2	–	1.11e-05
423 K, Crystal 2	27.31	1.07e-05
473 K, Crystal 2	27.78	1.03e-05
523 K, Crystal 2	28.27	–
524 K, Crystal 2	–	1.01e-05
569 K, Crystal 2	–	9.95e-06
573 K, Crystal 2	28.82	–
621 K, Crystal 2	–	9.84e-06
623 K, Crystal 2	29.33	–
670 K, Crystal 2	–	9.74e-06
673 K, Crystal 2	29.88	–
715 K, Crystal 2	–	9.76e-06
723 K, Crystal 2	30.6	–
772 K, Crystal 2	–	9.89e-06
773 K, Crystal 2	31.24	–
823 K, Crystal 2	31.87	–
827 K, Crystal 2	–	9.97e-06
872 K, Crystal 2	–	1.01e-05
873 K, Crystal 2	32.53	–
923 K, Crystal 2	33.26	1.02e-05
970 K, Crystal 2	–	1.03e-05
973 K, Crystal 2	33.94	–
1023 K, Crystal 2	34.6	1.05e-05
1068 K, Crystal 2	–	1.06e-05
1073 K, Crystal 2	35.23	–
1083 K, Crystal 2	35.42	–
1093 K, Crystal 2	35.84	–
1103 K, Crystal 2	36.88	–
1113 K, Crystal 2	39.48	–
1121 K, Crystal 2	–	9.27e-06
1123 K, Crystal 2	43.12	–
1128 K, Crystal 2	45.62	–
1132 K, Crystal 2	–	8.29e-06
1133 K, Crystal 2	49.09	–
1138 K, Crystal 2	61.42	–
1143 K, Crystal 1	52.29	7.99e-06
1148 K, Crystal 1	42.04	–
1150 K, Crystal 1	–	1.09e-05
1153 K, Crystal 1	33.83	–
1163 K, Crystal 1	31	–
1173 K, Crystal 1	29.58	–
1177 K, Crystal 1	–	1.41e-05
1218 K, Crystal 1	–	1.43e-05
1223 K, Crystal 1	29.71	–
1272 K, Crystal 1	–	1.48e-05
1273 K, Crystal 1	30.06	–
1317 K, Crystal 1	–	1.5e-05
1323 K, Crystal 1	30.23	–
1370 K, Crystal 1	–	1.51e-05
1373 K, Crystal 1	30.3	–
1423 K, Crystal 1	30.53	–
1431 K, Crystal 1	–	1.57e-05
1468 K, Crystal 1	–	1.57e-05
1473 K, Crystal 1	30.72	–
1523 K, Crystal 1	30.91	–
1573 K, Crystal 1	31.36	–
1623 K, Crystal 1	31.34	–
1673 K, Crystal 1	31.59	–
1723 K, Crystal 1	32.07	–
1773 K, Crystal 1	32.8	–
1823 K, Crystal 1	33.31	–
1873 K, Crystal 1	33.5	–
1923 K, Crystal 1	33.68	–
1973 K, Crystal 1	34.23	–

Settings	Triple point temperature [K]
[1], Crystal 2, Laser pulse heating	1141.4
